Columns and labels:
Thymidylate Synthase = Thymidylate Synthase (Lacticaseibacillus casei, UniProt P00469); details: cited from earlier work
pancreas cancer = details: combined with 5-FU; cited from earlier work
colorectal cancer = details: Phase IIb; cited from earlier work
[1] = test system: metastatic colorectal carcinoma; details: modulation of 5-FU with LV; cited from earlier work
[2] = test system: stage IV colorectal cancer; test: ISO-CC-005 open-label Phase I/II dose cohort trial of [6R]-MTHF with 5-FU (response per RECIST 1.1, adverse events); assay type: in vivo, human
Excerpt: As used herein, the term ORR shall refer to the Objective Response Rate, ie. the proportion of patients with reduction in tumor burden of a predefined amount. […] (Note: the appearance of one or more new lesions is also considered progression). Stable Disease (SD): • Neither sufficient shrinkage to qualify for PR nor sufficient increase to qualify for PD, taking as reference the smallest sum diameters while on study. ([…], Schwartz […], Ford R, et al. New response evaluation criteria in solid tumours: revised RECIST guideline (version 1.1). Eur J Cancer. 2009 January; 45(2):228-47) […] A maximum of 63 Stage IV CRC patients eligible for 1st, 2nd or 3rd line treatment are planned to be enrolled in this study disposed as follows: three to six patients in each dose cohort, and three additional patients in one dose cohort in each treatment arm according to the following study design (Table 1). [table] […] Dosing: Rapid i.v. bolus injections at a fixed dose of 30, 60, 120 or 240 mg/m^2, will be administered approximately 30 minutes after administration of 5-FU on Day 1 and Day 2 in each treatment cycle in all ^dose cohorts of the study (i.e. regardless of treatment arm). The regimen will be repeated every second week for up to eight (8) cycles, i.e. up to sixteen (16) weeks. 5-FU (5-fluorouracil) is formulated as injection solution. Dosing: 5-FU will be administered as i.v. bolus injections on Day 1 and Day 2 in each treatment cycle. In Arm #2 and Arm #3 of the study, 5-FU will be administered approximately 60 minutes after start of Oxaliplatin or Irinotecan administration, respectively (see description below). The regimen will be repeated every second week for up to eight (8) cycles, i.e. up to sixteen (16) weeks. ISO-CC-005 is an open clinical phase I/II tolerability and dose definition study designed to evaluate safety and define the [6R]-MTHF dose for continued development. It evaluates four doses of [6R]-MTHF in combination with 5-FU with or without the different combinations of irinotecan or oxaliplatin and bevacizumab in patients with metastatic Colorectal Cancer using 4 different protocols: • MOD+5-FU: [6R]-MTHF in combination with 5-FU only, similar to Nordic FLV protocol • MOD+[…] in combination with 5-FU and Irinotecan, similar to Nordic FLIRI protocol • MOD+FLOX: [6R]-MTHF in combination with 5-FU and Oxaliplatin, similar to Nordic FLOX protocol • MOFOX: [6R]-MTHF in combination with 5-FU and Oxaliplatin, similar to FOLFOX-6 protocol The patients belong to several treatment lines ranging from first to third and even fifth lines. The results of the study are regularly assessed, and the results from the group of patients undergoing 1st line treatment and partially the group of patients undergoing 2nd, 3rd and 5th line treatment have previously (in August 2017) and again (December 2017) been analyzed. The clinical study is still ongoing. […] (see FIG. 2). Four (4) 1st line patients could not be followed for the additional 8 weeks' treatment due to study protocol formalities. No further 1st line patients had been analysed at this point.

[3] = 1st line patients, 8 weeks' treatment
[4] = 30 patients, 1st, 2nd, 3rd and 5th line, after 8 weeks' treatment

Sequence of Thymidylate Synthase (P00469 whole entry): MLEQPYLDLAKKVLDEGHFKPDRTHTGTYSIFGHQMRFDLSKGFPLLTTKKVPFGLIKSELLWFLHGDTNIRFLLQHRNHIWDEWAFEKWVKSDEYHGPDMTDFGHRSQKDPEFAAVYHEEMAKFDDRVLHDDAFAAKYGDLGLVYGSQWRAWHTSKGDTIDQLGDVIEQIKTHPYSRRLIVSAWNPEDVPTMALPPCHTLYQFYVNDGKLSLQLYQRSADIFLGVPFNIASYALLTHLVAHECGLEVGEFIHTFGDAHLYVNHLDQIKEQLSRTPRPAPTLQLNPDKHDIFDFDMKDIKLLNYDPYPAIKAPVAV

## Nc1nc2c(c(=O)[nH]1)N1CN(c3ccc(C(=O)N[C@@H](CCC(=O)O)C(=O)O)cc3)C[C@@H]1CN2 (single isomer, unassigned) [[6S]-isomer]
Thymidylate Synthase
  effect on the natural [6R]-isomer as co-substrate for TS: partial competitive inhibitor

## Nc1nc2c(c(=O)[nH]1)N1CN(c3ccc(C(=O)N[C@@H](CCC(=O)[O-])C(=O)[O-])cc3)CC1CN2.[Ca+2] (stereo partly drawn) [CoFactor, [6R,S]-5,10-methylene-THF Ca salt]
Pancreas cancer
  patients with clinical benefit, defined as stable disease or tumor response: 40%
Colorectal cancer
  differences between the study arms (CoFactor vs leucovorin) with regard to efficacy or safety: no significant differences

## Nc1nc2c(c(=O)[nH]1)N(C=O)C(CNc1ccc(C(=O)N[C@@H](CCC(=O)O)C(=O)O)cc1)CN2 (stereo partly drawn) [Leucovorin]
[1]
  time-to-progression (TTP) of disease: prolongation of the time-to-progression (TTP)

## Nc1nc2c(c(=O)[nH]1)N1CN(c3ccc(C(=O)N[C@@H](CCC(=O)O)C(=O)O)cc3)C[C@H]1CN2 [[6R]-MTHF, [6R]-5,10-methylenetetrahydrofolate]
[2]; [3]
  ORR: 50%
  patients with clinical benefit, defined as stable disease or partial response: 100%
[2]; 1st line patients, 16 weeks of treatment
  patients showing clinical benefit: 100%
[2]; 2nd, 3rd or 5th line patients (25), after 8 weeks' treatment
  patients with clinical benefit, defined as stable disease or partial response: 64%
[2]; [4]
  patients with partial response: 27%
  patients with progressive disease: 13%
  patients with stable disease: 60%
[2]; [6R]-MTHF combined with 5-FU
  clinical benefit, defined as stable disease or tumor response, treated patients: > 90%
[2]; colorectal cancer patients, initial 5-FU followed by [6R]-MTHF
  ORRs (objective response rates): 50-60%
[2]; eight 1st line patients, 16 weeks of treatment
  progression in the cancer after the initial 8 weeks' treatment: no progression
[2]; in vivo
  toxicity of 5-FU when combined with [6R]-MTHF, compared to 5-FU with other folate adjuvants: reduced
[2]; of eight 1st line patients
  patients showing Partial Response at 16 weeks: 5 patients
  patients showing Stable Disease at 16 weeks: 3 patients
[2]; reference baseline sum diameters, with 5-FU
  treated patients with at least a 25% decrease in the sum of the diameters of target lesions: ~65%

Source: patent US12527796B2, “[6R]-MTHF—an efficient folate alternative in 5-fluorouracil based chemotherapy” (Isofol Medical AB, priority 2017, dated 2026)
